Data from patent publication US10001470B2, “Method, system and composition for optically inducing cardiomyocyte contraction” (Sanford-Burnham Medical Research Institute, priority 2009, dated 2018).

Legend:
[1] = test system: Neonatal Rat Ventricular Myocytes (NRVMs); experiment: Calcium transient (Tdecay) in single-pulse stimulated NRVMs, CTIC; type: cell-based; conditions: for Tdecay Mean / Tdecay Diff. (%) control vs compound / Tdecay Difference (ms) control vs compound: single pulse; for Tdecay Mean: average signal of three wells
Text: (§1) A Calcium Transient Image Cytometer (CTIC) instrument and software have been developed at Vala Sciences to analyze calcium transient and other fluorescent read out in stimulated cardiomyocytes which is utilized in the Examples described herein. The instrument consists of a Nikon Eclipse™ microscope with a 20× objective, a Cohu 6612-3000 monochrome ½″ digital/analog progressive scan camera (which operates at 30 or 60 Hz), a Pentium™ 4-based PC, and a 200 gigabyte external “firewire” hard drive.
Platinum electrodes are mounted on a micromanipulator to stimulate cardiomyocytes cultured in a 96-well plate. The plate is placed, without a lid, on the stage of a robotic inverted microscope outfitted for fluorescence microscopy. The mechanical stage of the microscope moves to bring each well into position and the micromanipulator lowers to the pair of electrodes to bring them into contact with the culture medium of the well that is being analyzed. The voltage used to stimulate the cells is on the order of 20 to 30 volts, utilizing square wave pulses of 5 to 20 msec. A “polarity reverser” is included in the circuit to maintain electrode performance and effective stimulation of cardiac myocytes. FIG. 3 describes the prototype setting. After positioned on the well, the electrodes move to the “down” position, the instrument autofocuses on cells nuclei (blue channel), stimulates the cells (single stimulus or at 1 to 3 Hz for 3 to 10 seconds) and acquires the fluo-4 channel (green channel). Subsequently, the electrodes move to the “up” position and the instrument moves to another well, repeating the entire process. The time required to sample each well will range from 20 to 30 seconds, depending on the number of frames that are collected and the rate of stimulation.
The instrument is incorporated in a 37° C. chamber with CO2 and O2 percentage controllers, allowing the execution of experiment in approximate physiological conditions. The calcium analysis software, developed at Vala Sciences as a plug-in for Vala's CyteSeer High Content Analysis™ software, converts the fluo-4 and Hoechst 33342 fluorescence signals in a binary mask, to distinguish portions of the images corresponding to single cells. Then, comparing the images acquired during the stimulation, the software reports the calcium variation for the well or for every single cell and the average value for the well. Traces can be filtered to remove low responders or kinetics with specific characteristics.
A number of kinetic parameters can be automatically derived either for the nuclear, cytoplasm or the whole cell compartments: The Full Width at Half Maximum (FWHM), which is the time required for progression from the 50% point on the upstroke to 50% point on the downstroke, TRise, which is the time from 50% point to 100% on the upstroke, and the TDecay, which is the time period from 100% point to 50% point on the decay phase. Other values can be measured, including the time from 75% to 25% in the downstroke (T75-25) and the value at a particular time. Values are measured for single cells in the well and as average of the well.
The CTIC and calcium recording have been validated also for toxicity-related analysis. In one set of experiments, NRVMs are treated with either sparfloxacin or cisapride. The first one is a fluoroquinolone antibiotic no longer available in the U.S., known to induce QT interval prolongation at high dosage. The second one is a serotonin 5-HT4 receptor agonist, used to cure people with gastro esophageal reflux disease. […] This is a clear hallmark of compounds that predispose to arrhythmia and torsades de pointes.
Tdecay is indicated for the average signal of three control wells and three compound treated wells. The mean, standard deviation (SD) and percent error is calculated for each group. The difference between the control and the compound groups is also indicated.
FIGS. 5A and 5B show calcium transient in drug treated NRVMs. […]

[2] = test system: Neonatal Rat Ventricular Myocytes (NRVMs); type: cell-based
Text: as §1
Platinum electrodes are mounted on a micromanipulator to stimulate cardiomyocytes cultured in a 96-well plate. The plate is placed, without a lid, on the stage of a robotic inverted microscope outfitted for fluorescence microscopy. The mechanical stage of the microscope moves to bring each well into position and the micromanipulator lowers to the pair of electrodes to bring them into contact with the culture medium of the well that is being analyzed. […]
The instrument is incorporated in a 37° C. chamber with CO2 and O2 percentage controllers, allowing the execution of experiment in approximate physiological conditions. The calcium analysis software, developed at Vala Sciences as a plug-in for Vala's CyteSeer High Content Analysis™ software, converts the fluo-4 and Hoechst 33342 fluorescence signals in a binary mask, to distinguish portions of the images corresponding to single cells. […]

Cisapride
Early after depolarization (EAD) ([1]; 1 μM): causes early after depolarization (EAD)
Effect on Tdecay ([1]; 1 μM): induces an increase in Tdecay
Tdecay Mean ([1]; 1 μM in recording buffer): 2145 ms
Tdecay Diff. (%) control vs compound ([1]; 1 μM): +129%
Tdecay Difference (ms) control vs compound ([1]; 1 μM): +1210 ms

Sparfloxacin
Effect on Tdecay ([1]; 100 μM during the stimulation): clearly doubles the Tdecay
Tdecay Mean ([1]; 100 μM in recording buffer): 1969 ms
Tdecay Diff. (%) control vs compound ([1]; 100 μM): +106%
Tdecay Difference (ms) control vs compound ([1]; 100 μM): +1012 ms
Calcium flux response to continuous stimulation [2]: irregular calcium flux
